# Results as given in US12421211B2, “Heterocyclic compounds” (Hoffmann-La Roche Inc., priority 2021, dated 2025).
# Structures can show the parent of a compound that is named as a salt.
# Test system: Acinetobacter baumannii ATCC17961
# Test: Antimicrobial susceptibility testing: 90% growth inhibitory concentration (IC90) determination
# Type: cell-based
# Settings: Acinetobacter baumannii, ATCC17961, 16 h, 90% growth inhibitory concentration, Acinetobacter baumannii ATCC17961, Iso-Sensitest broth, OD 600 nm over 16 h; read-out: ATCC 17961 IC90
# Procedure: Assay Procedures Antimicrobial Susceptibility Testing: 90% Growth Inhibitory Concentration (IC90) Determination
# The in vitro antimicrobial activity of the compounds was determined according to the following procedure:
# The assay used a 10-points Iso-Sensitest broth medium to measure quantitatively the in vitro activity of the compounds against Acinetobacter baumannii ATCC17961.
# Stock compounds in DMSO were serially twofold diluted (e.g. range from 50 to 0.097 μM final concentration) in 384 wells microtiter plates and inoculated with 49 μl the bacterial suspension in Iso-Sensitest medium to have a final cell concentration of ˜5×10^(5) CFU/ml in a final volume/well of 50 ul/well. Microtiter plates were incubated at 35±2° C.
# Bacterial cell growth was determined with the measurement of optical density at λ=600 nm each 20 minutes over a time course of 16h. Growth inhibition was calculated during the logarithmic growth of the bacterial cells with determination of the concentration inhibiting 50% (IC50) and 90% (IC90) of the growth.
# Table 1 provides the 90% growth inhibitory concentrations (IC90) in micromoles per liter of the compounds of present invention obtained against the strain Acinetobacter baumannii ATCC17961.
row,SMILES,IC90
1,"Cc1nn(CC(=O)Nc2cccnn2)cc1-c1ccc(-c2cnc(C(=O)Nc3ccc(C(=O)N4CCN(C(=O)C5CC[N+](C)(C)CC5)CC4)c(Cl)c3)n2C)c(F)c1F [Example G23, N-[3-chloro-4-[4-(1,1-dimethylpiperidin-1-ium-4-carbonyl)piperazine-1-carbonyl]phenyl]-5-[2,3-difluoro-4-[3-methyl-1-[2-oxo-2-(pyridazin-3-ylamino)ethyl]pyrazol-4-yl]phenyl]-1-methyl-imidazole-2-carboxamide; formate]",270 nM
2,"COCCn1ncc(-c2cc(C)c(-c3cnc(C(=O)Nc4ccc(C(=O)N5CCN(C(=O)C6CC[N+](CC(=O)O)(CC7CNC7)CC6)CC5)c(Cl)c4)n3C)cc2Cl)c1C (stereo not shown) [Example B40, 2-[1-(azetidin-3-ylmethyl)-4-[4-[2-chloro-4-[[5-[5-chloro-4-[1-(2-methoxyethyl)-5-methyl-pyrazol-4-yl]-2-methyl-phenyl]-1-methyl-imidazole-2-carbonyl]amino]benzoyl]piperazine-1-carbonyl]piperidin-1-ium-1-yl]acetic acid; formate]",1800 nM
3,"COCCn1ncc(-c2ccc(-c3cnc(C(=O)Nc4ccc(C(=O)N5CCC(C(=O)N6CC[N+](C)(CC7CNC7)CC6)CC5)c(Cl)c4)n3C)c(F)c2F)c1C [Example B23, N-[4-[4-[4-(azetidin-3-ylmethyl)-4-methyl-piperazin-4-ium-1-carbonyl]piperidine-1-carbonyl]-3-chloro-phenyl]-5-[2,3-difluoro-4-[1-(2-methoxyethyl)-5-methyl-pyrazol-4-yl]phenyl]-1-methyl-imidazole-2-carboxamide; formate]",98 nM
4,"COCCn1ncc(-c2ccc(-c3cnc(C(=O)Nc4ccc(C(=O)N5CCN(C(=O)[C@H]6CC[N@+](CC(=O)O)(CC7CNC7)CC6)CC5)c(Cl)c4)n3C)c(C)c2F)c1C [Example O4, cis 2-[1-(azetidin-3-ylmethyl)-4-[4-[2-chloro-4-[[5-[3-fluoro-4-[1-(2-methoxyethyl)-5-methyl-pyrazol-4-yl]-2-methyl-phenyl]-1-methyl-imidazole-2-carbonyl]amino]benzoyl]piperazine-1-carbonyl]piperidin-1-ium-1-yl]acetic acid formate]",118 nM
5,"COCCn1ncc(-c2ccc(-c3cnc(C(=O)Nc4ccc(C(=O)N5CCN(C(=O)C[N+]6(C)CCC(N)C6)CC5)c(Cl)c4)n3C)c(F)c2F)c1C (stereo not shown) [Example C2, N-[4-[4-[2-(3-amino-1-methyl-pyrrolidin-1-ium-1-yl)acetyl]piperazine-1-carbonyl]-3-chloro-phenyl]-5-[2,3-difluoro-4-[1-(2-methoxyethyl)-5-methyl-pyrazol-4-yl]phenyl]-1-methyl-imidazole-2-carboxamide; formic acid; formate]",41 nM

# Same assay, conditions: Acinetobacter baumannii, ATCC17961, 16 h, read-out: ATCC 17961 IC90
row,SMILES,IC90
1,"Cc1nn(CC(F)F)cc1-c1ccc(-c2cnc(C(=O)Nc3ccc(C(=O)N4CCN(C(=O)C5CC[N+](C)(CC(N)=O)CC5)CC4)c(Cl)c3)n2C)c(F)c1F (stereo not shown) [Example B7, N-[4-[4-[1-(2-amino-2-oxo-ethyl)-1-methyl-piperidin-1-ium-4-carbonyl]piperazine-1-carbonyl]-3-chloro-phenyl]-5-[4-[1-(2,2-difluoroethyl)-3-methyl-pyrazol-4-yl]-2,3-difluoro-phenyl]-1-methyl-imidazole-2-carboxamide; formate]",170 nM
2,"COCCn1ncc(-c2ccc(-c3cnc(C(=O)Nc4ccc(C(=O)NCC5CCN(C(=O)C[N+](C)(C)C)CC5)c(Cl)c4)n3C)c(F)c2F)c1C [Example A9, [2-[4-[[[2-chloro-4-[[5-[2,3-difluoro-4-[1-(2-methoxyethyl)-5-methyl-pyrazol-4-yl]phenyl]-1-methyl-imidazole-2-carbonyl]amino]benzoyl]amino]methyl]-1-piperidyl]-2-oxo-ethyl]-trimethyl-ammonium; 2,2,2-trifluoroacetate]",160 nM
